From patent US11124554B2, “Modified ligand-gated ion channels and methods of use” (Howard Hughes Medical Institute, priority 2016, dated 2021)
Entries after “also recorded” stand apart in the source; their conditions may differ. Where two headings read alike, the source gives them in different places.

Assays:
α7-5HT3 = target: T1, α7-5HT3 (Homo sapiens, UniProt P36544, M226I/T225I); experiment: Agonist potency (EC50), HEK cells expressing chimeric channel; format: cell-based, human α7 nAChR LBD, murine 5HT3 IPD
T1 construct: expressed in transfected cells; host or cells: HEK cells

α7^Y115F,G175K-GlyR = target: T2, α7^Y115F,G175K-GlyR (Homo sapiens, UniProt P36544, G175K/Y115F); experiment: Agonist potency at chimeric channel; format: cell-based; conditions: for EC50: Table 6, read-out: Potency, a7GlyR Y115F G175K
T2 construct: expressed in transfected cells

α7^Q79G,G175K-GlyR = target: T3, α7^Q79G,G175K-GlyR (Homo sapiens, UniProt P36544, G175K/Q79G); experiment: Agonist potency at chimeric channel; format: cell-based; conditions: Table 6; read-out: Potency, a7GlyR Q79G G175K
T3 construct: expressed in transfected cells

α7^G175K-GlyR = target: T4, α7^G175K-GlyR (Homo sapiens, UniProt P36544, G175K); experiment: Agonist potency at chimeric channel; format: cell-based
T4 construct: expressed in transfected cells

α7^Q79G,Y115F,G175K-GlyR = target: T5, α7^Q79G,Y115F,G175K-GlyR (Homo sapiens, UniProt P36544, G175K/Q79G/Y115F); experiment: Agonist potency at chimeric channel; format: cell-based; conditions: Table 6; read-out: Potency, a7Gly Q79G G175K Y115F
T5 construct: expressed in transfected cells

[1] = target: T6, α7GlyR Q79G G175K Y115F R27D E41R (Homo sapiens, UniProt P36544, E41R/G175K/Q79G/R27D/Y115F); experiment: Agonist potency at chimeric channel; format: cell-based; conditions: Table 6; read-out: Potency, a7GlyR Q79G G175K Y115F R27D E41R
T6 construct: expressed in transfected cells

α7^W77F,Q79G,G175K-GlyR = target: T7, α7^W77F,Q79G,G175K-GlyR (Homo sapiens, UniProt P36544, G175K/Q79G/W77F); experiment: Agonist potency at chimeric channel; format: cell-based; conditions: Table 6; read-out: Potency, a7GlyR W77F Q79G G175K
T7 construct: expressed in transfected cells

α7-GlyR = target: T8, α7-GlyR (Homo sapiens, UniProt P36544); experiment: Agonist potency (EC50), HEK cells expressing chimeric channel; format: cell-based
T8 construct: expressed in transfected cells; host or cells: HEK cells

[2] = test system: α7GlyR chimeric channels with G175K and A298G mutations; format: cell-based, human
α7^Q79G-5HT3 = target: T9, α7^Q79G-5HT3 (Homo sapiens, UniProt P36544, M226I/Q79G/T225I); experiment: Agonist potency (EC50), HEK cells expressing chimeric channel; format: cell-based, human α7 nAChR LBD, murine 5HT3 IPD; conditions: HEK cells; Table 1; read-out: Mean EC50, α7^Q79G-5HT3
T9 construct: expressed in transfected cells; host or cells: HEK cells

α7^Q79G-GlyR^A298G = target: T10, α7^Q79G-GlyR^A298G (Homo sapiens, UniProt P36544, A298G/Q79G); experiment: as above; format: cell-based; conditions: HEK cells; Table 2; read-out: Mean EC50 and SEM in parentheses, α7^Q79G-GlyR^A298G
T10 construct: expressed in transfected cells; host or cells: HEK cells

α7^Q79A-5HT3 = target: T11, α7^Q79A-5HT3 (Homo sapiens, UniProt P36544, M226I/Q79A/T225I); experiment: as above; format: cell-based, human α7 nAChR LBD, murine 5HT3 IPD; conditions: HEK cells; Table 1; read-out: Mean EC50, α7^Q79A-5HT3
T11 construct: expressed in transfected cells; host or cells: HEK cells

α7^Q79G-GlyR = target: T12, α7^Q79G-GlyR (Homo sapiens, UniProt P36544, Q79G); experiment: as above; format: cell-based; conditions: HEK cells; Table 2; read-out: Mean EC50 and SEM in parentheses, α7^Q79G-GlyR
T12 construct: expressed in transfected cells; host or cells: HEK cells

α7-GlyR^A298G = target: T13, α7-GlyR^A298G (Homo sapiens, UniProt P36544, A298G); experiment: as above; format: cell-based; conditions: HEK cells; Table 2; read-out: Mean EC50 and SEM in parentheses, α7-GlyR^A298G
T13 construct: expressed in transfected cells; host or cells: HEK cells

α7^Q79S-5HT3 = target: T14, α7^Q79S-5HT3 (Homo sapiens, UniProt P36544, M226I/Q79S/T225I); experiment: as above; format: cell-based, human α7 nAChR LBD, murine 5HT3 IPD; conditions: HEK cells; Table 1; read-out: Mean EC50, α7^Q79S-5HT3
T14 construct: expressed in transfected cells; host or cells: HEK cells

α7^Q79A-GlyR = target: T15, α7^Q79A-GlyR (Homo sapiens, UniProt P36544, Q79A); experiment: as above; format: cell-based; conditions: HEK cells; Table 2; read-out: Mean EC50 and SEM in parentheses, α7^Q79A-GlyR
T15 construct: expressed in transfected cells; host or cells: HEK cells

α7^Q79S,L131G,Q139L-GlyR = target: T16, α7^Q79S,L131G,Q139L-GlyR (Homo sapiens, UniProt P36544, L131G/Q139L/Q79S); experiment: cell-based; format: cell-based; conditions: α7^Q79S,L131G,Q139L-GlyR
T16 construct: expressed in transfected cells

α7^Y115F-GlyR G175R = target: T17, α7^Y115F-GlyR G175R (Homo sapiens, UniProt P36544, G175R/Y115F); experiment: Agonist potency at chimeric channel (Table 8); format: cell-based; conditions: relative to α7^Y115F-GlyR
T17 construct: expressed in transfected cells

α7^Y115F-GlyR G175S = target: T18, α7^Y115F-GlyR G175S (Homo sapiens, UniProt P36544, G175S/Y115F); experiment: Agonist potency at chimeric channel (Table 8); format: cell-based; conditions: relative to α7^Y115F-GlyR
T18 construct: expressed in transfected cells

[3] = test system: mouse cortical neurons transduced with α7^Q79G-GlyR^A298G; experiment: Action potential firing of transduced cortical neurons; format: cell-based; conditions: 30 nM; 40 pA current injection; restored after washout
Excerpt: After washout (WASH) of tropisetron, neuron firing is restored.
(§1) AAVs or DNA plasmids containing nucleic acids encoding a α7^Q79G-GlyR^A298G or α7Q79G,Y115F,G175K-GlyR chimeric LGICs were transduced into mouse cortical neurons. […] Neuron activity was silenced by application of low concentration of agonist (FIG. 7 and FIG. 8C).

α7^L131G-5HT3 HC = experiment: Agonist potency at chimeric channel (Table 9); format: cell-based, human; conditions: α7^L131G-5HT3 HC
α7^Y115F-GlyR G175F = target: T19, α7^Y115F-GlyR G175F (Homo sapiens, UniProt P36544, G175F/Y115F); experiment: Agonist potency at chimeric channel (Table 8); format: cell-based; conditions: relative to α7^Y115F-GlyR
T19 construct: expressed in transfected cells

[4] = test system: mouse cortical neurons transduced with α7^Q79G,Y115F,G175K-GlyR; experiment: Action potential firing of transduced cortical neurons; format: cell-based; conditions: 100 nM; current injection; restored after washout
Excerpt: FIGS. 8A-8C show activity of agonists on chimeric LGICs with a G175K mutation. FIG. 8A) A graph of EC50s for Q79G G175K LBD mutants against known agonists normalized to the unmodified α7-GlyR chimeric channel (log scale). […] Unmod.: unmodified α7-GlyR chimeric LGIC. FIG. 8C) Action potentials of cortical neurons from a mouse brain transduced with α7^Q79G,Y115F,G175K-GlyR chimeric LGIC. […] After washout (WASH) of tropisetron, neuron firing is restored
as §1

α7^Q79S,L131G-GlyR = target: T20, α7^Q79S,L131G-GlyR (Homo sapiens, UniProt P36544, L131G/Q79S); experiment: Agonist potency at chimeric channel (Table 9); format: cell-based; conditions: α7^Q79S,L131G-GlyR
T20 construct: expressed in transfected cells

α7^Y115F-GlyR G175V = target: T21, α7^Y115F-GlyR G175V (Homo sapiens, UniProt P36544, G175V/Y115F); experiment: Agonist potency at chimeric channel (Table 8); format: cell-based; conditions: relative to α7^Y115F-GlyR
T21 construct: expressed in transfected cells

[5] = Table 6, read-out: Potency, a7-5HT3
[6] = α7GlyR Q79G A298G G175K Y115F; read-out: Agonist potency

T2 sequence (P36544 with tags, fused parts or gaps Y115F/G175K): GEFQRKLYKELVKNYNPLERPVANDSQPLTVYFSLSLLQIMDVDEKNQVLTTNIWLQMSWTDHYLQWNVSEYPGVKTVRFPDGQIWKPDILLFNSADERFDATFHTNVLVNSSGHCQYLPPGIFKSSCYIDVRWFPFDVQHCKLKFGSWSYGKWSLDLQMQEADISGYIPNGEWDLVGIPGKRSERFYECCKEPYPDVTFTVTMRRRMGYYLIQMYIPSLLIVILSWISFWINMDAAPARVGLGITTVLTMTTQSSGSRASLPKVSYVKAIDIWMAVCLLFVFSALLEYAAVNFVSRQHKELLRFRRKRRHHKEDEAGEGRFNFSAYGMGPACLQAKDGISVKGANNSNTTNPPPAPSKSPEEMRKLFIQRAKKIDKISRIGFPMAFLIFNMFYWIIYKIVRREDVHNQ
T1 sequence (P36544 with tags, fused parts or gaps T225I/M226I): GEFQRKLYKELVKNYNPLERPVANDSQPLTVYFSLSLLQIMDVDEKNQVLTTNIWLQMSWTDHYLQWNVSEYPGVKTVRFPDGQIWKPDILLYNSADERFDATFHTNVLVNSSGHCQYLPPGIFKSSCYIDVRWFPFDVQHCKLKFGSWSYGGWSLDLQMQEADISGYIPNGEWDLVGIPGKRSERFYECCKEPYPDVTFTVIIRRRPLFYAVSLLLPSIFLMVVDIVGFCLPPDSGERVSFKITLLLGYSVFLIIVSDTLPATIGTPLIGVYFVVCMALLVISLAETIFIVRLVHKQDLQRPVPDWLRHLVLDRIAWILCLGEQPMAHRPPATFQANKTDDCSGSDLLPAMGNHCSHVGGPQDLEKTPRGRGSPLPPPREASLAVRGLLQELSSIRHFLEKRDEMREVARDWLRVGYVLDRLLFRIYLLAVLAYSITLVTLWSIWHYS
T5 sequence (P36544 with tags, fused parts or gaps Q79G/Y115F/G175K): as the sequence (P36544 with tags, fused parts or gaps Y115F/G175K) above, with Q57G counted along it
T8 sequence (P36544 with tags, fused parts or gaps): as the sequence (P36544 with tags, fused parts or gaps Y115F/G175K) above, with F93Y, K153G counted along it
T4 sequence (P36544 with tags, fused parts or gaps G175K): as the sequence (P36544 with tags, fused parts or gaps Y115F/G175K) above, with F93Y counted along it
T3 sequence (P36544 with tags, fused parts or gaps Q79G/G175K): as the sequence (P36544 with tags, fused parts or gaps Y115F/G175K) above, with Q57G, F93Y counted along it
T6 sequence (P36544 with tags, fused parts or gaps R27D/E41R/Q79G/Y115F/G175K): as the sequence (P36544 with tags, fused parts or gaps Y115F/G175K) above, with R5D, E19R, Q57G counted along it
T7 sequence (P36544 with tags, fused parts or gaps W77F/Q79G/G175K): as the sequence (P36544 with tags, fused parts or gaps Y115F/G175K) above, with W55F, Q57G, F93Y counted along it
T19 sequence (P36544 with tags, fused parts or gaps Y115F/G175F): as the sequence (P36544 with tags, fused parts or gaps Y115F/G175K) above, with K153F counted along it
T20 sequence (P36544 with tags, fused parts or gaps Q79S/L131G): as the sequence (P36544 with tags, fused parts or gaps Y115F/G175K) above, with Q57S, F93Y, L109G, K153G counted along it
T12 sequence (P36544 with tags, fused parts or gaps Q79G): as the sequence (P36544 with tags, fused parts or gaps Y115F/G175K) above, with Q57G, F93Y, K153G counted along it
T9 sequence (P36544 with tags, fused parts or gaps Q79G/T225I/M226I): as the sequence (P36544 with tags, fused parts or gaps T225I/M226I) above, with Q57G counted along it
T17 sequence (P36544 with tags, fused parts or gaps Y115F/G175R): as the sequence (P36544 with tags, fused parts or gaps Y115F/G175K) above, with K153R counted along it
T16 sequence (P36544 with tags, fused parts or gaps Q79S/L131G/Q139L): as the sequence (P36544 with tags, fused parts or gaps Y115F/G175K) above, with Q57S, F93Y, L109G, Q117L, K153G counted along it
T18 sequence (P36544 with tags, fused parts or gaps Y115F/G175S): as the sequence (P36544 with tags, fused parts or gaps Y115F/G175K) above, with K153S counted along it
T15 sequence (P36544 with tags, fused parts or gaps Q79A): as the sequence (P36544 with tags, fused parts or gaps Y115F/G175K) above, with Q57A, F93Y, K153G counted along it
T21 sequence (P36544 with tags, fused parts or gaps Y115F/G175V): as the sequence (P36544 with tags, fused parts or gaps Y115F/G175K) above, with K153V counted along it
T13 sequence (P36544 with tags, fused parts or gaps, stated change not applied): as the sequence (P36544 with tags, fused parts or gaps Y115F/G175K) above, with F93Y, K153G, A276G counted along it
T14 sequence (P36544 with tags, fused parts or gaps Q79S/T225I/M226I): as the sequence (P36544 with tags, fused parts or gaps T225I/M226I) above, with Q57S counted along it
T11 sequence (P36544 with tags, fused parts or gaps Q79A/T225I/M226I): as the sequence (P36544 with tags, fused parts or gaps T225I/M226I) above, with Q57A counted along it
T10 sequence (P36544 with tags, fused parts or gaps Q79G): as the sequence (P36544 with tags, fused parts or gaps Y115F/G175K) above, with Q57G, F93Y, K153G, A276G counted along it

Fc1c(Cl)cccc1NC(=S)N[C@H]1CN2CCC1CC2 [Compound 701]
EC50 (α7-5HT3; [5]): > 100 µM

Fc1ccc(NC(=S)N[C@H]2CN3CCC2CC3)cc1Cl [Compound 702]
EC50 (α7-5HT3; [5]): > 100 µM

Fc1ccc(Cl)cc1NC(=S)N[C@H]1CN2CCC1CC2 [Compound 703]
EC50 (α7-5HT3; [5]): > 100 µM

Cc1ccc(Cl)cc1NC(=S)N[C@H]1CN2CCC1CC2 [Compound 705]
EC50 (α7-5HT3; [5]): > 100 µM | EC50 (α7^Y115F,G175K-GlyR): > 10 µM

FC(F)(F)Oc1ccc(NC(=S)N[C@@H]2CN3CCC2CC3)cc1 [Compound 713]
EC50 (α7-5HT3; [5]): > 100 µM | EC50 (α7^Q79G,G175K-GlyR): 0.54 µM | EC50 (α7^Y115F,G175K-GlyR): > 10 µM | EC50 (α7^G175K-GlyR; Table 6, read-out: Potency, a7GlyR G175K): 2.1 µM | EC50 (α7^Q79G,Y115F,G175K-GlyR): 23.9 µM | EC50 [1]: > 10 µM

COc1ccc2[nH]cc(C(=O)O[C@H]3C[C@H]4CC[C@@H](C3)N4C)c2c1 [Compound 736]
EC50 (α7-5HT3; [5]): 0.83 µM | EC50 (α7^Q79G,G175K-GlyR): 0.044 µM | EC50 (α7^Y115F,G175K-GlyR): 0.57 µM | EC50 (α7^Q79G,Y115F,G175K-GlyR): 0.078 µM | EC50 [1]: 0.078 µM | EC50 (α7^W77F,Q79G,G175K-GlyR): 0.06 µM

CN1C2CCCC1CC(NC(=O)c1nn(C)c3ccccc13)C2 (centres unmarked) [Granisetron]
activation of α7-GlyR (α7-GlyR): does not activate | activation of α7-5HT3 (α7-5HT3): does not activate

c1ccc2c(c1)Sc1ccccc1N2CC1CN2CCC1CC2 (centres unmarked) [Mequitazine]
EC50 (α7-5HT3; [5]): > 30 µM | EC50 (α7^Q79G,Y115F,G175K-GlyR): > 10 µM | EC50 (α7^W77F,Q79G,G175K-GlyR): 0.15 µM

CN1CCCC1c1cccnc1 (centres unmarked) [Nicotine]
potency enhancement over α7-GlyR (α7^G175K-GlyR): 10 fold | EC50 ([2]; read-out: Agonist potency; α7GlyR Q79G A298G G175K Y115F): 3.3 µM | EC50 ([2]; read-out: Agonist potency; α7GlyR Q79G A298G P2161): 1.6 µM | EC50 ([2]; read-out: Agonist potency; α7GlyR Q79G A298G Y115F K395 K396A): 16.5 µM | EC50 ([2]; read-out: Agonist potency; α7GlyR Q79G G175K A298G): 0.11 µM | EC50 ([2]; read-out: Agonist potency; α7GlyR Q79G W77F A298G): 3.8 µM

O=C(O[C@H]1C[C@H]2CC[C@@H](C1)N2)c1c[nH]c2ccccc12 [Nortropisetron]
EC50 [2, 6]: 0.0084 µM | EC50 ([2]; α7GlyR Q79G A298G Y115F K395 K396A; read-out: Agonist potency): 0.0063 µM

CN(C)CCCN1c2ccccc2Sc2ccccc21 [Promazine]
EC50 (α7-5HT3; [5]): > 100 µM | EC50 (α7^Q79G,Y115F,G175K-GlyR): > 100 µM

Cn1cc(C(=O)C(=O)NC2CN3CCC2CC3)c2ccccc21 (centres unmarked) [RS56812]
EC50 (α7-GlyR; HEK cells, Table 2, read-out: Mean EC50 and SEM in parentheses, α7 GlyR): 6.5 µM | EC50 (α7^Q79G-5HT3): 1.4 µM | EC50 (α7-5HT3; HEK cells, Table 1, read-out: Mean EC50, α7-5HT3): 10 µM | EC50 (α7^Q79G-GlyR^A298G): 0.61 µM | EC50 (α7^Q79A-5HT3): 6.8 µM | EC50 (α7^Q79G-GlyR): 2 µM | EC50 (α7-GlyR^A298G): 2.3 µM | EC50 (α7^Q79S-5HT3): 5.7 µM | EC50 (α7^Q79A-GlyR): 3.5 µM

CN1[C@@H]2CC[C@H]1C[C@@H](OC(=O)c1c[nH]c3ccccc13)C2 [Tropisetron]
improved potency over α7-GlyR (α7^Q79S,L131G,Q139L-GlyR): 3 fold | potency enhancement at α7^Y115F-GlyR by additional mutation G175K (α7^Y115F,G175K-GlyR; relative to α7^Y115F-GlyR): 5.6 fold | potency enhancement at α7^Y115F-GlyR by additional mutation G175R (α7^Y115F-GlyR G175R): 5.8 fold | potency enhancement at α7^Y115F-GlyR by additional mutation G175S (α7^Y115F-GlyR G175S): 9.3 fold | suppression of action potential firing [3]: silenced; also recorded: potently suppressed | potency enhancement (α7^L131G-5HT3 HC): 2.3 fold | EC50 [2, 6]: 0.0028 µM | EC50 ([2]; α7GlyR Q79G G175K A298G; read-out: Agonist potency): 0.0006 µM | potency enhancement at α7^Y115F-GlyR by additional mutation G175F (α7^Y115F-GlyR G175F): 2 fold | suppression of action potential firing [4]: silenced; also recorded: potently suppressed | improved potency over α7-GlyR (α7^Q79S,L131G-GlyR): 15 fold | potency enhancement at α7^Y115F-GlyR by additional mutation G175V (α7^Y115F-GlyR G175V): 16.7 fold
